For data set [1], the target named is Tyrosine-protein kinase JAK2 (Homo sapiens, UniProt O60674). Put plainly: Inhibition of human JAK2 kinase domain using biotin-Lyn-substrate-2 as substrate incubated for 1 hr by ELISA method.
Data set [2] addresses Tyrosine-protein kinase JAK1 (Homo sapiens, UniProt P23458). Description: Inhibition of human JAK1 kinase domain using biotin-Lyn-substrate-2 as substrate incubated for 1 hr by ELISA method. In general terms: An ELISA detects its analyte on a solid surface through an enzyme-linked reagent.
Data set [3] deals with T1, Tyrosine-protein kinase JAK3 (Homo sapiens, UniProt P52333).
T1 sequence (P52333 whole entry): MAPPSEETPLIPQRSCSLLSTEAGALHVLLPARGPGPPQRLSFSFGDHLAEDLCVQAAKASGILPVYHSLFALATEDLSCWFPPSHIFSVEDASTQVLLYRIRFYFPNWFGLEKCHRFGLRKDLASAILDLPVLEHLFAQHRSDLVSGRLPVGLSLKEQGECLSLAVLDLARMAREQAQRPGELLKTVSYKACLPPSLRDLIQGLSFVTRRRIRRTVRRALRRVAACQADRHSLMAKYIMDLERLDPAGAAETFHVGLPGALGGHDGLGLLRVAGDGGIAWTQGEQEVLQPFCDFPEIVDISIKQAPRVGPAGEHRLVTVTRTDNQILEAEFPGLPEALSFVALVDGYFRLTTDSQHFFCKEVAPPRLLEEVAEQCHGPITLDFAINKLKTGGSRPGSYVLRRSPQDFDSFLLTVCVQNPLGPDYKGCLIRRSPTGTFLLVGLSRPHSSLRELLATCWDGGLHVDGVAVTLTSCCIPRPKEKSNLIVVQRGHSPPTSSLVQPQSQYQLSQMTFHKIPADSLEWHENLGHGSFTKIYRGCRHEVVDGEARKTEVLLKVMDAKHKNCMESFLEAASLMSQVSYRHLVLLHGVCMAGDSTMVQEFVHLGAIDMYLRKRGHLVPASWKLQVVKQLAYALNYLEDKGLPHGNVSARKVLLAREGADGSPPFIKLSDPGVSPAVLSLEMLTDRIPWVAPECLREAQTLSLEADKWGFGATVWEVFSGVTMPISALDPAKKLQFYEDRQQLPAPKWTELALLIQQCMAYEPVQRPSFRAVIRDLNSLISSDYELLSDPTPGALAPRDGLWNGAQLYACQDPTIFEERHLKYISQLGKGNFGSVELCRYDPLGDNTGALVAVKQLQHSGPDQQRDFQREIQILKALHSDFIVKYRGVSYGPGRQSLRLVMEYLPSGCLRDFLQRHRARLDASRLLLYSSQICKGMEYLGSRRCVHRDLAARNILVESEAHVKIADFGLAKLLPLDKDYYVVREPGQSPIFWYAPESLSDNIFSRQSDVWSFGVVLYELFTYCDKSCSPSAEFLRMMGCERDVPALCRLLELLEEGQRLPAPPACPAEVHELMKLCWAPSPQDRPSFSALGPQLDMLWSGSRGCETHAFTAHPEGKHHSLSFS
Put plainly: Inhibition of human JAK3 kinase domain using biotin-Lyn-substrate-2 as substrate incubated for 1 hr by ELISA method.

The nature of data set [4]: Inhibition of JAK1/JAK3 in Lewis rat splenocytes assessed as reduction in IL2-stimulated T-cell proliferation incubated for 3 days by alamar blue dye based fluorescence assay. As to conditions: 72 h. (The colour change of resazurin is a common sign of viable cells or microbes.)
A short description of data set [5]: Effective permeability of the compound at pH 7.4 by PAMPA method. The format is physicochemical. As to conditions: read-out: Peff.
Data set [6] deals with Voltage-gated inwardly rectifying potassium channel KCNH2 (Homo sapiens, UniProt Q12809).
Description: Inhibition of human ERG expressed in CHOK1 cells incubated for 10 mins by Rb efflux assay
Data set [7] in a line: Intrinsic clearance in rat liver microsomes at 0.2 uM in presence of NADPH generating system by LC/MS/MS method. Type of data set: ADME. As to conditions: read-out: CLH. In general terms: Microsomes from liver hold many membrane-bound enzymes, among them those of drug oxidation.

Tyrosine-protein kinase JAK2, sequence (O60674 whole entry, the tested form may be a part): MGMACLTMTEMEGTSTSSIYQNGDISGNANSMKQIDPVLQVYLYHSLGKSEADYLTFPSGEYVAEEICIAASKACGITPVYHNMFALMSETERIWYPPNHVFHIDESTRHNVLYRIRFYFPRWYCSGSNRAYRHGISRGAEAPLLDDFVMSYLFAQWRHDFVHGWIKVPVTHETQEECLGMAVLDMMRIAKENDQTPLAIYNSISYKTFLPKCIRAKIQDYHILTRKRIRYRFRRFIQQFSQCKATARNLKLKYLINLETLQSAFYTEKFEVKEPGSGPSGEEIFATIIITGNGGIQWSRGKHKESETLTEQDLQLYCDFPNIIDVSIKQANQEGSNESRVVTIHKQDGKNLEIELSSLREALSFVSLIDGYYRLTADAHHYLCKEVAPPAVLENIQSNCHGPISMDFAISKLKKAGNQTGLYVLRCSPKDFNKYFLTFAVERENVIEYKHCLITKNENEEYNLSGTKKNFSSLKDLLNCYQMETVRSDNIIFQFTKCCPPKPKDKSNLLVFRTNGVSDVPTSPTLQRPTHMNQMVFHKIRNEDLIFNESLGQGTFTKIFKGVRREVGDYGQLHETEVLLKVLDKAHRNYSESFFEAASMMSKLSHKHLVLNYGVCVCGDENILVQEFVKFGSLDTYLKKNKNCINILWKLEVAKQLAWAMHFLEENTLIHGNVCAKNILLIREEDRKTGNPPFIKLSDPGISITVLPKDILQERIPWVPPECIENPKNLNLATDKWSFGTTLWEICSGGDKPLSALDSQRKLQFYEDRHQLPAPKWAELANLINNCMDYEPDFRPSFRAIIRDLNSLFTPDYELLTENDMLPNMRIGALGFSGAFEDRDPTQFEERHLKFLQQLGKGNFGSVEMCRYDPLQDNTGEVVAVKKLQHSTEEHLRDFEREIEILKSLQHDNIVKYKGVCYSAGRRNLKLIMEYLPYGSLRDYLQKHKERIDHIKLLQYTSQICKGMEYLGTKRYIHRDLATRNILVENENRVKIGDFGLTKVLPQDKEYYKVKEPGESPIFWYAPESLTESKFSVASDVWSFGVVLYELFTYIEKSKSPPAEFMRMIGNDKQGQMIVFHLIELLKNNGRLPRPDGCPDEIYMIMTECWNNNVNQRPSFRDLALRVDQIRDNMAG
Voltage-gated inwardly rectifying potassium channel KCNH2, sequence (Q12809 whole entry): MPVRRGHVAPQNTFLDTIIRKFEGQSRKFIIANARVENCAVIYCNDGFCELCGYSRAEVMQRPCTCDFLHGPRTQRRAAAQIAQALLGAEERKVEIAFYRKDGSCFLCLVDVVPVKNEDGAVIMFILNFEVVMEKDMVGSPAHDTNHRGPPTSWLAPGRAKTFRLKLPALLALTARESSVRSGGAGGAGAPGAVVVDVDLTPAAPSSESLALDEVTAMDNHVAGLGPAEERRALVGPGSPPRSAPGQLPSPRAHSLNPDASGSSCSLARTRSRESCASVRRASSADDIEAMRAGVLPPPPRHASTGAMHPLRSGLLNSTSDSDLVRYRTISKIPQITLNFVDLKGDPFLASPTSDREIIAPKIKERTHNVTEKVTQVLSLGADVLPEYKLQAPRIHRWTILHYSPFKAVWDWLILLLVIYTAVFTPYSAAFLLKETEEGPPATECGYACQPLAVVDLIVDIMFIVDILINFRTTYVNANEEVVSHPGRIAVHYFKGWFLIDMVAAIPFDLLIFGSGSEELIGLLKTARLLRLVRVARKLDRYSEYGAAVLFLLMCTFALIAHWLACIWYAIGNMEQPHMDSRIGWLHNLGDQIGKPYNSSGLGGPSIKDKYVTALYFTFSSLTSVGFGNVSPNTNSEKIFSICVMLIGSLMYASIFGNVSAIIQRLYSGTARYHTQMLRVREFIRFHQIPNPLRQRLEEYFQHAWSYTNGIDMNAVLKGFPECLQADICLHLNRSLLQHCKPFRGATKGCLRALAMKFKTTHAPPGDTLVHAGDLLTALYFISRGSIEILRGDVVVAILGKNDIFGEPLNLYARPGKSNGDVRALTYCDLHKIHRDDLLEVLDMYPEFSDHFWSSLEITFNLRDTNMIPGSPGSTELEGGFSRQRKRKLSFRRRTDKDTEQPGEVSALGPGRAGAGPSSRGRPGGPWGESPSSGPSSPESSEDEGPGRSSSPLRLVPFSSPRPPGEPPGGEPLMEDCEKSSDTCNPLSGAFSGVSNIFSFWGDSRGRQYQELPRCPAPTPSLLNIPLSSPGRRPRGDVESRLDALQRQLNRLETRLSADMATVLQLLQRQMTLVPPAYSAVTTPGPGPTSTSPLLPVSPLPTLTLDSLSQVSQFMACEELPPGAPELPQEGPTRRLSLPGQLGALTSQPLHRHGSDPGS
Tyrosine-protein kinase JAK1, sequence (P23458 whole entry, the tested form may be a part): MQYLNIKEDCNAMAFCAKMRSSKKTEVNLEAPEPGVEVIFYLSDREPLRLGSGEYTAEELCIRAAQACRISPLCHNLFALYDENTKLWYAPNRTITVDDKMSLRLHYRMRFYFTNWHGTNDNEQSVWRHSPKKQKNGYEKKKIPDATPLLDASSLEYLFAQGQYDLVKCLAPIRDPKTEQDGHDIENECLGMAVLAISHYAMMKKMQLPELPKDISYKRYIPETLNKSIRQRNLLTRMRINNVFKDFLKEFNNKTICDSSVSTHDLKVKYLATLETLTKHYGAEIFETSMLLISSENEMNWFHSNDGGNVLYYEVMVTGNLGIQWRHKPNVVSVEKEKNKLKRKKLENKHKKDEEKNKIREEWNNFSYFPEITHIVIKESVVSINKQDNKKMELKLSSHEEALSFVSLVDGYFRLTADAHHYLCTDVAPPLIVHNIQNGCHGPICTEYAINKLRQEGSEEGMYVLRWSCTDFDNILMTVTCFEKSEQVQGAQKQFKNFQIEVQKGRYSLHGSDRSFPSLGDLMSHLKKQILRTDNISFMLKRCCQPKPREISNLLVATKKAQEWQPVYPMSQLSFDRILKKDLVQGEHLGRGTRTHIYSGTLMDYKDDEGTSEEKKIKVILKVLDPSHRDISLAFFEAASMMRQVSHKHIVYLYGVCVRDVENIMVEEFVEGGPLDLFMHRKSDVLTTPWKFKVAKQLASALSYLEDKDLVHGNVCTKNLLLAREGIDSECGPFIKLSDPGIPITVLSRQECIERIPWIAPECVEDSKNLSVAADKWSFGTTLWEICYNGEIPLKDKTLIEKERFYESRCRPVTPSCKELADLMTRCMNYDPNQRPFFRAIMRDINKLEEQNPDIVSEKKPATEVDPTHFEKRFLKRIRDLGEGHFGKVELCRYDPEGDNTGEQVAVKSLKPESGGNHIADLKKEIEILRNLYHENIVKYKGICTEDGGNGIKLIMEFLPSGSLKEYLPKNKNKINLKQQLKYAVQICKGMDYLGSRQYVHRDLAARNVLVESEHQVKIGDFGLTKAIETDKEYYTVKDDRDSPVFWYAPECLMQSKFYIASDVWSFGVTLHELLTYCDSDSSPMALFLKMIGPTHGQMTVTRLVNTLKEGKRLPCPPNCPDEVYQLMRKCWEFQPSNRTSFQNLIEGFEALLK

For the compound `CN1CCC(Nc2c(C(N)=O)cnc3[nH]ccc23)CC1`, the values for the IC50 in data set [1], in data set [2] and in data set [3] were 310 nM, 300 nM and 90 nM, respectively.

On to `N#CCC(=O)N1CCC(Nc2c(C(N)=O)cnc3[nH]ccc23)CC1`, for which the IC50 (in general, the midpoint of a concentration-inhibition curve) is 200 nM in data set [1], 110 nM in data set [2] and 46 nM in data set [3].

For `N#Cc1ccc(N2CC[C@H](Nc3c(C(N)=O)cnc4[nH]ccc34)[C@H](F)C2)nc1`, the IC50 in data set [1] was 17 nM; in data set [2], 27 nM; in data set [3] it was 1.7 nM; in data set [4], 44 nM; in data set [6] it was over 100 µM. The Papp in data set [5] stood at 5 ×10⁻⁶ cm/s.

For the compound `NC(=O)c1cnc2[nH]ccc2c1NC1CCN(c2ccc(CO)cn2)CC1`, the results for the half-inhibitory concentration (IC50) in data set [1], in data set [2] and in data set [3] were 100 nM, 180 nM and 9.2 nM, respectively.

For `C[C@@H]1CCCC[C@@H]1Nc1c(C(N)=O)cnc2[nH]ccc12`, the CLint scaled at 0.2 µM in data set [7] was over 1000 mL/min/kg. Moreover, the IC50 in data set [1] came out at 30 nM; in data set [2], 47 nM; in data set [3], 5.1 nM; in data set [4], 86 nM.

The compound `NC(=O)c1cnc2[nH]ccc2c1NC1CCN(Cc2ccccc2)CC1` returned a concentration for half-maximal inhibition (IC50) in data set [1] of 84 nM.

For the compound `N#Cc1ccc(N2CCC(Nc3c(C(N)=O)cnc4[nH]ccc34)CC2)cc1`, the CLint scaled at 0.2 µM in data set [7] stood at 262 mL/min/kg. Moreover, the 50% inhibitory concentration (IC50) in data set [1] came to 49 nM; in data set [2] it was 50 nM.

As for `NC(=O)c1cnc2[nH]ccc2c1NC1CCN(c2ccc(C(F)(F)F)cn2)CC1`, the IC50 in data set [1] was 370 nM; in data set [3], 25 nM.

For `N#Cc1ccc(N2CCC(Nc3c(C(N)=O)cnc4[nH]ccc34)CC2)nc1`, the CLint scaled at 0.2 µM in data set [7] amounted to 204 mL/min/kg. In addition, the IC50 was 18 nM in data set [1], 16 nM in data set [2], 1.3 nM in data set [3] and 27 nM in data set [4]. Moreover, in data set [5], the Papp was determined as 26 ×10⁻⁶ cm/s.

Regarding `CS(=O)(=O)N1CCC(Nc2c(C(N)=O)cnc3[nH]ccc23)CC1`, the IC50 was found to be 190 nM in data set [1] and 150 nM in data set [3].

As to `N#Cc1cnc(N2CCC(Nc3c(C(N)=O)cnc4[nH]ccc34)CC2)cn1`, the IC50 in data set [1] was 41 nM; in data set [2], 35 nM; in data set [3], 3.6 nM; in data set [4] it was 77 nM; in data set [6], over 100 µM. Further, in data set [5], the Papp is under 0.2 ×10⁻⁶ cm/s.

In the case of `NC(=O)c1cnc2[nH]ccc2c1N[C@@H]1CCCN(Cc2ccccc2)C1`, the 50% inhibitory concentration (IC50) in data set [1] is 430 nM; in data set [3], 240 nM.

With `NC(=O)c1ccc(N2CCC(Nc3c(C(N)=O)cnc4[nH]ccc34)CC2)nc1`, the IC50 in data set [1] was 41 nM; in data set [2], 58 nM; in data set [3], 5.2 nM.

Regarding `CC(=O)N1CCC(Nc2c(C(N)=O)cnc3[nH]ccc23)CC1`, the IC50 in data set [1] came to 640 nM; in data set [3], 340 nM.

With `N#Cc1ccc(N2CCC(Nc3c(C(N)=O)cnc4[nH]ccc34)CC2)nn1`, the half-inhibitory concentration (IC50) in data set [1] is 12 nM; in data set [2], 22 nM; in data set [3], 1.2 nM; in data set [4], 140 nM; in data set [6], over 100 µM. For the same compound, in data set [5], the Papp is under 0.2 ×10⁻⁶ cm/s.

As to `NC(=O)c1cnc2[nH]ccc2c1N[C@H]1CCCN(Cc2ccccc2)C1`, the IC50 in data set [1] amounted to 640 nM; in data set [3] it was 130 nM.

Regarding `N#Cc1cccc(CN2CCC(Nc3c(C(N)=O)cnc4[nH]ccc34)CC2)c1`, the IC50 worked out at 46 nM in data set [1] and 25 nM in data set [3].

For the compound `C[C@H]1CN(c2ccc(C#N)cn2)CC[C@H]1Nc1c(C(N)=O)cnc2[nH]ccc12` (relative stereo), the concentration for half-maximal inhibition (IC50) in data set [1] amounted to 14 nM; in data set [2], 11 nM; in data set [3], 0.78 nM.

The record behind these values is ChEMBL document CHEMBL3593212, “Synthesis and evaluation of novel 1H-pyrrolo[2,3-b]pyridine-5-carboxamide derivatives as potent and orally efficacious immunomodulators targeting JAK3” (Bioorg Med Chem, 2015).
